What was measured:
human SLC6A19 and TMEM27 [1] = target: T1, human SLC6A19 and TMEM27 (Homo sapiens, UniProt Q695T7); experiment: Radiolabelled (3H) leucine uptake in CHO cells with doxycycline-inducible expression of human SLC6A19 and TMEM27 (Example B-1); assay type: cell-based; conditions: CHO cells with doxycycline-inducible expression of human SLC6A19 and TMEM27, read-out: SLC6A19_Radioligand Uptake Assay IC50
T1 construct: expressed in transfected cells
T1 sequence (Q695T7 1-634): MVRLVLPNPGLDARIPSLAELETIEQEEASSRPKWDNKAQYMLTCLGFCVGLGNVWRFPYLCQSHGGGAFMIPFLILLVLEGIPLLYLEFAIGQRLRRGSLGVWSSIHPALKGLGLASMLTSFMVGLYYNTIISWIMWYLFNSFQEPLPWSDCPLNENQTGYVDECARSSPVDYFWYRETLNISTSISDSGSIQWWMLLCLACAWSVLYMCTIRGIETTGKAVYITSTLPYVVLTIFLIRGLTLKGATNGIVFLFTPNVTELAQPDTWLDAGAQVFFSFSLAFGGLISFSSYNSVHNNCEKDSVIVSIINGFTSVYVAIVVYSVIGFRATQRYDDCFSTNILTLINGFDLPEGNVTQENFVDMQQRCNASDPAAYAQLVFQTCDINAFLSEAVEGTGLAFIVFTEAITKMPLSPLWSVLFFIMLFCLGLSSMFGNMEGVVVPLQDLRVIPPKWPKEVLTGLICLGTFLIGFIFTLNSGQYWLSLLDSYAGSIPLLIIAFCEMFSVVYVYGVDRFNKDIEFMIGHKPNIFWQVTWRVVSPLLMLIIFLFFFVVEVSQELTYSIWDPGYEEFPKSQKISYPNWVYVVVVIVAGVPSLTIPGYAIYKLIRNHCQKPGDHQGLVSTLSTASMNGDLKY
T1 sequence (Q9HBJ8 15-222 partner): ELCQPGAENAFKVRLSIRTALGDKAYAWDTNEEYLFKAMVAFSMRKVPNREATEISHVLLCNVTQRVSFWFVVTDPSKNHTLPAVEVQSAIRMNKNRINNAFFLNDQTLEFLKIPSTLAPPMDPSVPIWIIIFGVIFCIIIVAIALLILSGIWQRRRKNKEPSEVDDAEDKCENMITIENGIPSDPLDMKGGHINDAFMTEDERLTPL
Method in brief: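 CHO cells were induced with doxycycline for 18 h at 37 °C, washed in HBSS, then exposed to compounds for 1 h: 8-point, 3-fold dilutions in duplicate, 0.5% DMSO final. Uptake measured by scintillation counting after 2 h shaking. Activity normalized with positive control as 0% and DMSO as 100%.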

human SLC6A19 and TMEM27 [2] = target: T1, human SLC6A19 and TMEM27; experiment: 13C6,15N-isoleucine uptake in CHO cells with doxycycline-inducible expression of human SLC6A19 and TMEM27, RapidFire mass spectrometry (Example B-2); assay type: cell-based; conditions: read-out: SLC6A19_RapidFire Uptake Assay IC50
Method in brief: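 Read-out is RapidFire mass-spec peak area of 13C6,15N-isoleucine taken up over 20 min at 37 °C, after 20 min compound pre-exposure in pH 7.2 HEPES-buffered saline. Cells: doxycycline-induced CHO co-expressing human SLC6A19 and TMEM27; compounds as duplicate 10-point 2-fold dilutions, positive control setting 0% activity.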

Compound | IC50 (human SLC6A19 and TMEM27 [1]) | IC50 (human SLC6A19 and TMEM27 [2])
CC1(C(=O)NCc2cc3cc(Cl)c(OCc4cccnc4F)cc3[nH]2)CC1 [Compound 30, N-((5-chloro-6-((2-fluoropyridin-3-yl)methoxy)-1H-indol-2-yl)methyl)-1-methylcyclopropane-1-carboxamide] | 263 nM | 155 nM
CNC(=O)NCc1cc2cc(F)c(OCc3cscn3)cc2[nH]1 [Compound 214, 1-((5-fluoro-6-(thiazol-4-ylmethoxy)-1H-indol-2-yl)methyl)-3-methylurea] | 152 nM | 193 nM
CC1(C(=O)NCc2cc3cc(C(F)(F)F)c(OCc4ccon4)cc3[nH]2)CC1 [Compound 59, N-((6-(isoxazol-3-ylmethoxy)-5-(trifluoromethyl)-1H-indol-2-yl)methyl)-1-methylcyclopropane-1-carboxamide] | 214 nM | 153 nM
CC1(C(=O)NCc2cc3cc(Cl)c(OCc4ccc(Cl)s4)cc3[nH]2)CC1 [Compound 320, N-((5-chloro-6-((5-chlorothiophen-2-yl)methoxy)-1H-indol-2-yl)methyl)-1-methylcyclopropane-1-carboxamide] | 1080 nM | 480 nM
O=C(NCc1cc2cc(F)c(OCc3cscn3)cc2[nH]1)N1CCCC1 [Compound 114, N-((5-fluoro-6-(thiazol-4-ylmethoxy)-1H-indol-2-yl)methyl)pyrrolidine-1-carboxamide] | 184 nM | 158 nM
CC1(C(=O)NCc2cc3cc(Cl)c(OCc4ccsc4Cl)cc3[nH]2)CC1 [Compound 321, N-((5-chloro-6-((2-chlorothiophen-3-yl)methoxy)-1H-indol-2-yl)methyl)-1-methylcyclopropane-1-carboxamide] | 891 nM | 379 nM
O=C(NCc1cc2cc(Cl)c(OCc3cocn3)cc2[nH]1)N1CCCC1 [Compound 113, N-((5-chloro-6-(oxazol-4-ylmethoxy)-1H-indol-2-yl)methyl)pyrrolidine-1-carboxamide] | 284 nM | 174 nM
CC(=O)NCc1cc2cc(Cl)c(NCc3ccon3)cc2[nH]1 [Compound 227, N-((5-chloro-6-((isoxazol-3-ylmethyl)amino)-1H-indol-2-yl)methyl)acetamide] | 317 nM | 486 nM
CC1(C(=O)NCc2cc3ccc(OCCc4cscn4)cc3[nH]2)CC1 [Compound 191, 1-methyl-N-((6-(2-(thiazol-4-yl)ethoxy)-1H-indol-2-yl)methyl)cyclopropane-1-carboxamide] | 1680 nM | 1220 nM
CC1(C(=O)NCc2cc3ccc(OCc4cnsc4)cc3[nH]2)CC1 [Compound 68, N-((6-(isothiazol-4-ylmethoxy)-1H-indol-2-yl)methyl)-1-methylcyclopropane-1-carboxamide] | 119 nM | 117 nM

Continued, values first:

IC50 (human SLC6A19 and TMEM27 [1]) | IC50 (human SLC6A19 and TMEM27 [2]) | Compound
137 nM | 68.6 nM | O=C(NCc1cc2cc(F)c(OCc3cscn3)cc2[nH]1)C1CCC1 [Compound 430, N-((5-fluoro-6-(thiazol-4-ylmethoxy)-1H-indol-2-yl)methyl)cyclobutanecarboxamide]
351 nM | 217 nM | Cc1coc(COc2cc3[nH]c(CNC(=O)N4CCCC4)cc3cc2Cl)n1 [Compound 426, N-((5-chloro-6-((4-methyloxazol-2-yl)methoxy)-1H-indol-2-yl)methyl)pyrrolidine-1-carboxamide]
148 nM | 35.7 nM | CCC(=O)NCc1cc2cc(Cl)c(OCc3cccc(F)n3)cc2[nH]1 [Compound 494, N-((5-chloro-6-((6-fluoropyridin-2-yl)methoxy)-1H-indol-2-yl)methyl)propionamide]
435 nM | 159 nM | O=C(NCc1cc2cc(OC(F)(F)F)c(CCc3cscn3)cc2[nH]1)N1CCCC1 [Compound 419, N-((6-(2-(thiazol-4-yl)ethyl)-5-(trifluoromethoxy)-1H-indol-2-yl)methyl)pyrrolidine-1-carboxamide]
3910 nM | > 50000 nM | CC1(C(=O)NCc2cc3cc(Cl)c(OCc4cscn4)c(Cl)c3[nH]2)CC1 [Compound 344, N-((5,7-dichloro-6-(thiazol-4-ylmethoxy)-1H-indol-2-yl)methyl)-1-methylcyclopropane-1-carboxamide]
820 nM | 609 nM | O=C(NCc1cc2cc(F)c(CCc3ccon3)cc2[nH]1)N1CCC1 [Compound 602, N-((5-fluoro-6-(2-(isoxazol-3-yl)ethyl)-1H-indol-2-yl)methyl)azetidine-1-carboxamide]

Reference: US20240199546A1, “INHIBITORS OF SOLUTE CARRIER FAMILY 6A MEMBER 19 (SLC6A19) AND METHODS OF USE THEREOF” (Maze Therapeutics, Inc., priority 2022, published 2024)
